Laboratory results taken from publication PMC5967201, “The Odorant Binding Protein 6 Expressed in Sensilla Chaetica Displays Preferential Binding Affinity to Host Plants Volatiles in Ectropis obliqua” (Frontiers in Physiology, 2018).
“Also recorded” adds a separate entry of the source. Like-named read-outs stand apart in the source and are kept apart here.

How the values were obtained:
EoblOBP6 [1] = biological target: T1, EoblOBP6 (Ectropis obliqua, UniProt A0A1L2BL92); test: Fluorescence competitive binding assay (displacement of 1-NPN from recombinant EoblOBP6)
Protocol: (§1) Fluorescence binding assays were performed on a fluorescence spectrophotometer F-380 (Tianjin, China) with a 1 cm light path quartz cuvette and 10 nm slits for excitation and emission. The excitation wavelength was set at 337 nm, and the emission spectrum was recorded between 390 and 500 nm. Both the fluorescent probe N-phenyl-1-naphthylamine (1-NPN) and the tested chemicals were dissolved in methanol in preparation for 1 mM stock solution. […] The fluorescence intensities at the maximum fluorescence emission were plotted against the free ligand concentration to determine the binding constants. The bound ligand was evaluated from the fluorescence intensity in the assumption of the protein was 100% dynamic, with a stoichiometry of 1:1 (protein: ligand) at saturation. The binding curves were linearized using Scatchard Plot.

EoblOBP6 [2] = biological target: T1, EoblOBP6; test: Fluorescence binding assay of probe 1-NPN with recombinant EoblOBP6 (titration, Scatchard plot)
Protocol: as §1, with “For the ligand binding assays, the tested compounds, including terpenoids, tea volatiles, herbivore-induced plant volatiles and non-volatile tastants, were selected according to the previously reported isolation from the E. obliqua host plant and non-host plant ([Sun X.L. et al., 2014]; [Zhang Z. et al., 2015]). Fluorescence” for “Fluorescence”, “saturation. […]” for “saturation.”, “dissociation constants of competitors” for “binding curves”, “calculated from the corresponding IC50 values following the equation: Ki = (IC50)/(1+(1-NPN)/K1-NPN), where (1-NPN) is the free concentration of 1-NPN and K1-NPN is the dissociation constant of the protein/1-NPN complex.” for “linearized using Scatchard Plot.”

antennae of E. obliqua = system: antennae of E. obliqua; set-up: method as in Zhang Z. et al., 2015; conditions: ref Zhang Z. et al., 2015; cited from earlier work
[3] = Table 1 volatiles, calculated from IC50: Ki = (IC50)/(1+(1-NPN)/K1-NPN)
[4] = Table 2 non-volatile tastants, calculated from IC50: Ki = (IC50)/(1+(1-NPN)/K1-NPN)
[5] = Table 2 non-volatile tastants, competitor 2 to 30 μM, 1-NPN and EoblOBP6 both at 2 μM
[6] = Table 1 volatiles, calculated from IC50: Ki = (IC50)/(1+(1-NPN)/K1-NPN), read-out: Ki
[7] = Table 1 volatiles, competitor titrated 2 to 30 μM into 1-NPN and EoblOBP6 both at 2 μM, 50 mM Tris-HCl pH 7.4, read-out: IC50

T1 sequence (A0A1L2BL92 entry or part of it): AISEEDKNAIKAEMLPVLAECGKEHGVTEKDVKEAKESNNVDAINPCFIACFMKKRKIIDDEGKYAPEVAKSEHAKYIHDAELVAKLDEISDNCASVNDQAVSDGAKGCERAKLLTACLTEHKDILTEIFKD

C=CC(C)(O)CCC=C(C)CCC=C(C)C (mixture of isomers) [Nerolidol]
IC50 (EoblOBP6 [1]): 15.6 ± 0.76 µM
Ki (EoblOBP6 [1]): 10.9 ± 0.53 µM
binding ability to EoblOBP6 in words (EoblOBP6 [1]): high binding ability

CC1=C[C@H](O)[C@H]2C[C@@H]1C2(C)C (relative stereo) [cis-Verbenol]
Ki (EoblOBP6 [1]; [3]): u.d.

CCCCCCO [1-Hexanol]
binding ability to EoblOBP6 in words (EoblOBP6 [1]): could hardly bind
Ki (EoblOBP6 [1]; [3]): u.d.

c1ccc(Nc2cccc3ccccc23)cc1 [1-NPN, N-phenyl-1-naphthylamine]
Kd (EoblOBP6 [2]): 2.7 ± 0.24 µM

C=C1[C@H]2CC[C@H](C2)C1(C)C [(+)-Camphene]
Ki (EoblOBP6 [1]; [3]): u.d.

C=C1CCC2CC1C2(C)C (stereo not drawn) [(-)-β-Pinene]
Ki (EoblOBP6 [1]; [3]): u.d.

CCC/C=C/C=O [(E)-2-hexenal]
Ki (EoblOBP6 [1]; [3]): u.d.

CC/C=C\CC=O [(Z)-3-hexenal]
Ki (EoblOBP6 [1]; [3]): u.d.

CC/C=C\CCO [(Z)-3-hexenol]
binding ability to EoblOBP6 in words (EoblOBP6 [1]): could hardly bind
Ki (EoblOBP6 [1]; [3]): u.d.

CC/C=C\CCOC(C)=O [(Z)-3-hexenyl acetate]
Ki (EoblOBP6 [1]; [3]): u.d.

CC/C=C\CCOC(=O)CCC [(Z)-3-hexenyl butyrate]
Ki (EoblOBP6 [1]; [3]): u.d.

CC/C=C\CCOC(=O)CCCCC [(Z)-3-hexenyl hexanoate]
Ki (EoblOBP6 [1]; [3]): u.d.

CN1[C@@H]2CC[C@H]1C[C@@H](OC(=O)C(CO)c1ccccc1)C2 (some centres unmarked) [Atropine, reference compound]
Ki (EoblOBP6 [1]; [4]): u.d.
IC50 (EoblOBP6 [1]; [5]): u.d.

O=Cc1ccccc1 [Benzaldehyde]
IC50 (EoblOBP6 [1]): 21.6 ± 0.84 µM
Ki (EoblOBP6 [1]): 15.1 ± 0.58 µM

OCc1ccccc1 [Benzyl alcohol]
Ki (EoblOBP6 [1]; [3]): u.d.

N#CCc1ccccc1 [Benzyl nitrile]
Ki (EoblOBP6 [1]; [3]): u.d.

COc1ccc2cc3[n+](cc2c1OC)CCc1cc2c(cc1-3)OCO2 [Berberine]
IC50 (EoblOBP6 [1]): 7.94 ± 0.61 µM
Ki (EoblOBP6 [1]): 5.55 ± 0.87 µM
binding ability to EoblOBP6 in words (EoblOBP6 [1]): tightly bound; also recorded: bind strongly

Cn1c(=O)c2c(ncn2C)n(C)c1=O [Caffeine, reference compound]
Ki (EoblOBP6 [1]; [4]): u.d.
IC50 (EoblOBP6 [1]; [5]): u.d.

CC12CCC(CC1=O)C2(C)C (centres unmarked) [Camphor]
Ki (EoblOBP6 [1]; [3]): u.d.

O.Oc1cc(O)c2c(c1)O[C@H](c1ccc(O)c(O)c1)[C@@H](O)C2 [Catechin]
Ki (EoblOBP6 [1]; [4]): u.d.
IC50 (EoblOBP6 [1]; [5]): u.d.

OCc1ccccc1O[C@@H]1O[C@H](CO)[C@@H](O)[C@H](O)[C@H]1O [D(-)-Salicin]
Ki (EoblOBP6 [1]; [4]): u.d.
IC50 (EoblOBP6 [1]; [5]): u.d.

OC[C@H]1OC(O)[C@H](O)[C@@H](O)[C@@H]1O (stereo partly drawn) [D-Glucose]
Ki (EoblOBP6 [1]; [4]): u.d.
IC50 (EoblOBP6 [1]; [5]): u.d.

OC[C@H]1O[C@@](CO)(O[C@H]2O[C@H](CO)[C@@H](O)[C@H](O)[C@H]2O)[C@@H](O)[C@@H]1O [D-Sucrose]
Ki (EoblOBP6 [1]; [4]): u.d.
IC50 (EoblOBP6 [1]; [5]): u.d.

O=C[C@H](O)[C@@H](O)[C@H](O)CO [D-Xylose]
Ki (EoblOBP6 [1]; [4]): u.d.
IC50 (EoblOBP6 [1]; [5]): u.d.

CCCCCCCCCC=O [Decanal]
binding ability to EoblOBP6 in words (EoblOBP6 [1]): could hardly bind
Ki (EoblOBP6 [1]; [3]): u.d.

CCCCCCOC(C)=O [Hexyl acetate]
binding ability to EoblOBP6 in words (EoblOBP6 [1]): could hardly bind
Ki (EoblOBP6 [1]; [3]): u.d.

c1ccc2[nH]ccc2c1 [Indole]
Ki (EoblOBP6 [1]; [3]): u.d.

C[C@H](N)C(=O)O [L-Alanine]
Ki (EoblOBP6 [1]; [4]): u.d.
IC50 (EoblOBP6 [1]; [5]): u.d.

N[C@@H](Cc1c[nH]cn1)C(=O)O [L-Histidine]
Ki (EoblOBP6 [1]; [4]): u.d.
IC50 (EoblOBP6 [1]; [5]): u.d.

C=C(C)[C@H]1CC=C(C)CC1 [Limonene]
Ki (EoblOBP6 [1]; [3]): u.d.

C=CC(C)(O)CCC=C(C)C (centres unmarked) [Linalool]
Ki (EoblOBP6 [1]; [3]): u.d.

COC(=O)c1ccccc1O [Methyl salicylate]
Ki (EoblOBP6 [1]; [3]): u.d.

CCCCCCCCC=O [Nonanal]
Ki (EoblOBP6 [1]; [3]): u.d.

Cn1c(=O)c2[nH]cnc2n(C)c1=O [Theophylline, reference compound]
Ki (EoblOBP6 [1]; [4]): u.d.
IC50 (EoblOBP6 [1]; [5]): u.d.

OC[C@H]1O[C@H](O[C@H]2O[C@H](CO)[C@@H](O)[C@H](O)[C@H]2O)[C@H](O)[C@@H](O)[C@@H]1O [Trehalose]
Ki (EoblOBP6 [1]; [4]): u.d.
IC50 (EoblOBP6 [1]; [5]): u.d.

CC1=CC(=O)[C@@H]2C[C@H]1C2(C)C [Verbenone]
Ki (EoblOBP6 [1]; [3]): u.d.

C/C1=C\CC/C(C)=C/CC(C)(C)/C=C/C1 [α-Caryophyllene]
Ki (EoblOBP6 [1]; [6]): 15.6 ± 0.19 µM
IC50 (EoblOBP6 [1]; [7]): 22.4 ± 0.27 µM

C=C/C(C)=C/C/C=C(\C)CCC=C(C)C [α-Farnesene]
binding ability to EoblOBP6 in words (EoblOBP6 [1]): high binding ability
Ki (EoblOBP6 [1]; [6]): 11 ± 0.29 µM
IC50 (EoblOBP6 [1]; [7]): 15.8 ± 0.42 µM

CC1=CCC2CC1C2(C)C (stereo not drawn) [α-Pinene]
Ki (EoblOBP6 [1]; [3]): u.d.

CC1=CC=C(C(C)C)CC1 [α-Terpinene]
IC50 (EoblOBP6 [1]): 26.2 ± 0.53 µM
Ki (EoblOBP6 [1]): 18.3 ± 0.37 µM
electrophysiological responses from the antennae (antennae of E. obliqua): strong electrophysiological responses

CC1=CC[C@@H](C(C)(C)O)CC1 [α-Terpineol]
Ki (EoblOBP6 [1]; [3]): u.d.

C=C1CC/C=C(\C)CC[C@@H]2[C@@H]1CC2(C)C [β-Caryophyllene]
Ki (EoblOBP6 [1]; [3]): u.d.

CC(=O)/C=C/C1=C(C)CCCC1(C)C [β-Ionone]
Ki (EoblOBP6 [1]; [3]): u.d.

C=CC(=C)CCC=C(C)C [β-Myrcene]
Ki (EoblOBP6 [1]; [3]): u.d.

C=C/C(C)=C/CC=C(C)C [β-Ocimene]
Ki (EoblOBP6 [1]; [3]): u.d.

CC1=CCC(C(C)C)=CC1 [γ-Terpinene]
Ki (EoblOBP6 [1]; [3]): u.d.
